According to patent US6737383B1, “Herbicidal oxadiazolidines” (priority 1999, dated 2004):

Legend:
[1] = system: bedstraw; experiment: Test B pre/postemergence bedstraw; assay type: in vivo, Galium aparine
Procedure, shortened: (§1)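 Response is a visual 0-to-10 score relative to untreated plants, where 0 means no effect and 10 means complete control, taken twelve to sixteen days after application. Treatments went onto soil at planting and onto foliage of 1- to 4-leaf plants, using a surfactant-containing non-phytotoxic solvent.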

[2] = system: cocklebur; experiment: Test B pre/postemergence cocklebur; assay type: in vivo, Xanthium strumarium; conditions: for Cocklebur plant response rating: Postemergence; for Plant response rating, Cocklebur: Preemergence
Procedure, shortened: as §1

[3] = system: corn; experiment: Test B pre/postemergence corn; assay type: in vivo, Zea mays
Procedure, shortened: as §1

[4] = system: crabgrass; experiment: Test B pre/postemergence crabgrass; assay type: in vivo, Digitaria sanguinalis
Procedure, shortened: as §1

[5] = system: giant foxtail; experiment: Test B pre/postemergence giant foxtail; assay type: in vivo, Setaria faberii
Procedure, shortened: as §1

[6] = system: morningglory; experiment: Test B pre/postemergence morningglory; assay type: in vivo, Ipomoea hederacea
Procedure, shortened: as §1

[7] = system: pigweed; experiment: Test B pre/postemergence pigweed; assay type: in vivo, Amaranthus retroflexus
Procedure, shortened: as §1

[8] = system: rape; experiment: Test B pre/postemergence rape; assay type: in vivo, Brassica napus
Procedure, shortened: as §1

[9] = system: soybean; experiment: Test B pre/postemergence soybean; assay type: in vivo, Glycine max
Procedure, shortened: as §1

[10] = system: velvetleaf; experiment: Test B pre/postemergence velvetleaf; assay type: in vivo, Abutilon theophrasti
Procedure, shortened: as §1

[11] = system: wheat; experiment: Test B pre/postemergence wheat; assay type: in vivo, Triticum aestivum
Procedure, shortened: as §1

[12] = system: wild oat; experiment: Test B pre/postemergence wild oat; assay type: in vivo, Avena fatua
Procedure, shortened: as §1

[13] = system: purple nutsedge; experiment: Test B pre/postemergence purple nutsedge; assay type: in vivo, Cyperus rotundus
Procedure, shortened: as §1

[14] = system: rice; experiment: Test B flood test rice; assay type: in vivo, Oryza sativa
Procedure, shortened: (§2)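 Each value is a visual injury score relative to controls, with 10 meaning complete control and 0 no effect. Evaluation took place twelve to sixteen days after the 2-leaf-stage plants were treated and kept in the greenhouse.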

[15] = system: smallflower flatsedge; experiment: Test B flood test smallflower flatsedge; assay type: in vivo, Cyperus difformis
Procedure, shortened: as §2

[16] = system: duck salad; experiment: Test B flood test duck salad; assay type: in vivo, Heteranthera limosa
Procedure, shortened: as §2

[17] = Postemergence, Rate 62 g/ha, scale 0 to 10, 0 is no effect, 10 is complete control
[18] = Postemergence, Rate 250 g/ha, scale 0 to 10, 0 no effect, 10 complete control
[19] = Preemergence, Rate 62 g/ha, scale 0 to 10, 0 is no effect, 10 is complete control
[20] = Preemergence, Rate 125 g/ha, scale 0 to 10 (0 no effect, 10 complete control)
[21] = Preemergence, Rate 250 g/ha, scale of 0 to 10 where 0 is no effect and 10 is complete control
[22] = Preemergence, Rate 500 g/ha, scale 0 (no effect) to 10 (complete control)
[23] = Rate 125 g/ha, Postemergence, scale 0 to 10, 0 no effect, 10 complete control
[24] = Rate 500 g/ha, Postemergence, 0 to 10 scale (0 no effect, 10 complete control)
[25] = Rate 62 g/ha, scale 0 to 10, 0 is no effect, 10 is complete control
[26] = Rate 125 g/ha, Postemergence section (flood test species), scale 0 to 10, 0 no effect, 10 complete control
[27] = Rate 500 g/ha, Postemergence section of Table B, 0 to 10 scale (0 no effect, 10 complete control)
[28] = flood test, listed under Postemergence, Rate 250 g/ha, scale 0 to 10, 0 no effect, 10 complete control

Cc1ccc(-n2c(=O)on(C(=O)N(c3ccc(F)cc3F)C(C)C)c2=O)c(C)c1 [Compound 24]
10: Crabgrass plant response rating [4, 22] | Crabgrass plant response rating [4, 24] | Morningglory plant response rating [6, 18]
3: Bedstraw plant response rating [1, 23] | Giant foxtail plant response rating [5, 18] | Soybean plant response rating [9, 17] | Soybean plant response rating [9, 18] | Soybean plant response rating [9, 23]
6: Plant response rating, Crabgrass [4, 20] | Plant response rating, Giant foxtail [5, 19] | Redroot pigweed plant response rating [7, 18] | Plant response rating, Redroot pigweed [7, 20] | Plant response rating, Redroot pigweed [7, 21] | Redroot pigweed plant response rating [7, 24]
9: Crabgrass plant response rating [4, 18] | Plant response rating, Crabgrass [4, 21] | Plant response rating, Giant foxtail [5, 21] | Giant foxtail plant response rating [5, 22] | Morningglory plant response rating [6, 17] | Morningglory plant response rating [6, 23] | Redroot pigweed plant response rating [7, 22]
0: Plant response rating, Bedstraw [1, 19] | Plant response rating, Bedstraw [1, 20] | Plant response rating, Bedstraw [1, 21] | Bedstraw plant response rating [1, 22] | Cocklebur plant response rating [2, 25] | Plant response rating, Cocklebur [2, 25] | Plant response rating, Cocklebur ([2]; Rate 125 g/ha, scale 0 to 10 (0 no effect, 10 complete control)) | Plant response rating, Cocklebur ([2]; Rate 250 g/ha, scale of 0 to 10 where 0 is no effect and 10 is complete control) | Cocklebur plant response rating ([2]; Rate 125 g/ha, scale 0 to 10, 0 no effect, 10 complete control) | Corn plant response rating [3, 17] | Corn plant response rating [3, 18] | Plant response rating, Corn [3, 19] | Plant response rating, Corn [3, 20] | Plant response rating, Corn [3, 21] | Corn plant response rating [3, 22] | Corn plant response rating [3, 23] | Corn plant response rating [3, 24] | Plant response rating, Crabgrass [4, 19] | Giant foxtail plant response rating [5, 17] | Plant response rating, Morningglory [6, 19] | Plant response rating, Morningglory [6, 20] | Plant response rating, Morningglory [6, 21] | Morningglory plant response rating [6, 22] | Redroot pigweed plant response rating [7, 17] | Rape plant response rating [8, 17] | Rape plant response rating [8, 18] | Plant response rating, Rape [8, 19] | Plant response rating, Rape [8, 20] | Plant response rating, Rape [8, 21] | Rape plant response rating [8, 23] | Plant response rating, Soybean [9, 19] | Plant response rating, Soybean [9, 20] | Plant response rating, Soybean [9, 21] | Velvetleaf plant response rating [10, 17] | Velvetleaf plant response rating [10, 18] | Plant response rating, Velvetleaf [10, 19] | Plant response rating, Velvetleaf [10, 20] | Plant response rating, Velvetleaf [10, 21] | Velvetleaf plant response rating [10, 22] | Velvetleaf plant response rating [10, 23] | Wheat plant response rating [11, 17] | Wheat plant response rating [11, 18] | Plant response rating, Wheat [11, 19] | Plant response rating, Wheat [11, 20] | Plant response rating, Wheat [11, 21] | Wheat plant response rating [11, 22] | Wheat plant response rating [11, 23] | Wild oats plant response rating [12, 17] | Wild oats plant response rating [12, 18] | Plant response rating, Wild oats [12, 20] | Plant response rating, Wild oats [12, 21] | Wild oats plant response rating [12, 23] | Nutsedge plant response rating [13, 17] | Nutsedge plant response rating [13, 18] | Plant response rating, Nutsedge [13, 19] | Plant response rating, Nutsedge [13, 20] | Plant response rating, Nutsedge [13, 21] | Nutsedge plant response rating [13, 22] | Nutsedge plant response rating [13, 23] | Nutsedge plant response rating [13, 24] | Rice plant response rating [14, 17] | Rice plant response rating [14, 26] | Rice plant response rating [14, 27] | Rice plant response rating [14, 28] | S. Flatsedge plant response rating [15, 17] | S. Flatsedge plant response rating [15, 26] | S. Flatsedge plant response rating [15, 28] | Ducksalad plant response rating [16, 17] | Ducksalad plant response rating [16, 26] | Ducksalad plant response rating [16, 27] | Ducksalad plant response rating [16, 28]
8: Bedstraw plant response rating [1, 18] | Bedstraw plant response rating [1, 24] | Crabgrass plant response rating [4, 23] | Giant foxtail plant response rating [5, 24]
7: Plant response rating, Giant foxtail [5, 20]
1: Cocklebur plant response rating ([2]; Rate 250 g/ha, scale 0 to 10, 0 no effect, 10 complete control) | Rape plant response rating [8, 22]
2: Bedstraw plant response rating [1, 17] | Cocklebur plant response rating ([2]; Rate 500 g/ha, 0 to 10 scale (0 no effect, 10 complete control)) | Crabgrass plant response rating [4, 17] | Giant foxtail plant response rating [5, 23] | Plant response rating, Redroot pigweed [7, 19] | Redroot pigweed plant response rating [7, 23] | Rape plant response rating [8, 24] | Soybean plant response rating [9, 22] | Wild oats plant response rating [12, 22]
